Five molecules from patent publication US10273267B2, “Beta-hairpin peptidomimetics as selective elastase inhibitors” (POLYPHOR AG, priority 2013, dated 2019) can be followed below.

Broadly, the IC50 is the concentration that gives 50% inhibition.

Where a SMILES comes first, the peptide text is derived from it. [ ]: non-standard residue; d: D form. Gly(octyl) = CCCCCCCC[C@H](N)C(=O)O; Aad = N[C@@H](CCCC(=O)O)C(=O)O; aThr = C[C@H](O)[C@H](N)C(=O)O; hSer = N[C@@H](CCO)C(=O)O; Dap = NC[C@H](N)C(=O)O

Common to all, as to type: biochemical
Assay [1] deals with T1, human neutrophil elastase (Homo sapiens, UniProt P08246).
T1 construct: purchased Serva Electrophoresis, Germany
T1 sequence (P08246 30-267): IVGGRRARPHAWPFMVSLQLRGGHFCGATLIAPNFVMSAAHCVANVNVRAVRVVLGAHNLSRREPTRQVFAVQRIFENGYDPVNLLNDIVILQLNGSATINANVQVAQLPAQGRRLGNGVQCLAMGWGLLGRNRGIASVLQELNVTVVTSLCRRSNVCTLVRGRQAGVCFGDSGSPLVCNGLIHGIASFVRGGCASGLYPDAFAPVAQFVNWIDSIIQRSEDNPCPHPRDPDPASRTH
The experiment in a line: Inhibition of human neutrophil elastase (hydrolysis of MeOSuc-AAPV-pNA). The following applies: substrate MeOSuc-AAPV-pNA 0.3 mM, enzyme 10 nM, 37° C., pH 8; read-out: Human neutrophil elastase (hNE) IC50. As to the method: 2.2 Inhibition of Human Neutrophil Elastase
The ability of the peptides of the invention to inhibit the hydrolysis activity of human neutrophil elastase (Serva Electrophoresis, Germany) using the synthetic tetrapeptidic substrate MeOSuc-AAPV-pNA (Bachem, Switzerland) was determined as follows:
The above substrate (0.3 mM) and human neutrophil elastase (10 nM) were incubated at 37° C. with serial dilutions of the peptides (1% DMSO final) in assay buffer (50 mM Tris, pH 8, 300 mM NaCl, 0.01% Tween20). The release of pNA was followed by monitoring the change in absorbance at 405 nm for 30 minutes. Control assays with the same assay set-up as above, but without peptide, ran linearly. The dose-response data were fitted to the 4-parameter Hill equation providing the IC50 value using Graphpad (Prism 5).

Assay [2] addresses T2, porcine pancreatic elastase (Sus scrofa, UniProt P00772).
T2 construct: purchased Sigma, USA
The assay is described as follows: Inhibition of porcine pancreatic elastase (hydrolysis of MeOSuc-AAA-pNA). The following applies: for hNE/PPE selectivity: ratio of PPE IC50 to hNE IC50; for IC50: substrate MeOSuc-AAA-pNA 1 mM, enzyme 15 nM, 37° C., pH8, read-out: Porcine pancreatic elastase (PPE) IC50. As for the experimental part:
2.3 Inhibition of Porcine Pancreatic Elastase
The ability of the peptides of the invention to inhibit the hydrolysis activity of porcine pancreatic elastase (Sigma, USA) using the synthetic tripeptidic substrate MeOSuc-AAA-pNA (Bachem, Switzerland) was determined as follows:
The above substrate (1 mM) and […] porcine pancreatic elastase (15 nM) were incubated at 37° C. with serial dilutions of the peptides (0.5% DMSO final) in assay buffer (50 mM Tris, pH8, 100 mM NaCl, 0.01% Tween20). The release of pNA was followed by monitoring the change in absorbance at 405 nm for 30 minutes. Control assays with the same assay set-up as above, but without peptide, ran linearly. The dose-response data were fitted to the 4-parameter Hill equation providing the IC50 value using Graphpad (Prism 5).

A further assay deals with T3, human proteinase 3 (Homo sapiens, UniProt P24158).
T3 construct: purchased Elastin Products Company, USA
T3 sequence (P24158 28-248): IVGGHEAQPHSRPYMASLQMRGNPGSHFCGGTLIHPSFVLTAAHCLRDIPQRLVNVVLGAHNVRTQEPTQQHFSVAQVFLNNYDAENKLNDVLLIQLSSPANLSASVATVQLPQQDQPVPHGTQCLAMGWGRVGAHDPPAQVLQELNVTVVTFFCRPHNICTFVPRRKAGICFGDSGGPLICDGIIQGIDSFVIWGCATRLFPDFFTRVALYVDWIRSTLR
The experiment in a line: Inhibition of human proteinase 3 (substrate Boc-Ala-Ala-Nva-SBzl). The following applies: for hNE/hPr3 selectivity: ratio of hPr3 IC50 to hNE IC50; for IC50: substrate Boc-Ala-Ala-Nva-SBzl 1 mM, enzyme 10 nM, 37° C., pH7.4, read-out: Human proteinase 3 (hPr3) IC50. As for the experimental part: 2.4 Inhibition of Human Proteinase 3
The inactivation of human proteinase 3 (Elastin Products Company, USA) by the peptides of the invention using synthetic tripeptidic substrate Boc-Ala-Ala-Nva-SBzl (Elastin Products Company, USA) was determined as follows:
The above substrate (1 mM), 4,4′-dithiodipyridine (250 μM) and human proteinase 3 (10 nM) were incubated at 37° C. with serial dilutions of the peptides (0.5% DMSO final) in assay buffer (50 mM Tris, pH7.4, 150 mM NaCl, 0.01% Tween20). The reaction process was followed by monitoring the change in absorbance at 340 nm for 30 minutes. Control assays with the same assay set-up as above, but without peptide, ran linearly. The dose-response data were fitted to the 4-parameter Hill equation providing the IC50 value using Graphpad (Prism 5).

T2 sequence (P00772 27-266): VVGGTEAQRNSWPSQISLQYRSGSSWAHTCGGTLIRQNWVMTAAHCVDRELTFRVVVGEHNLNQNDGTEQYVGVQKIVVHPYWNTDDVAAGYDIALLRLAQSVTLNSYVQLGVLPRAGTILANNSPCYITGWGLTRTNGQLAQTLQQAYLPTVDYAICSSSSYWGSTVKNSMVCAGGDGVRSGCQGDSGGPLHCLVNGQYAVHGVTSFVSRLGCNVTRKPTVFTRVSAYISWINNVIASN

`CCCCCCCC[C@@H]1NC(=O)[C@@H]2CCCN2C(=O)[C@H]2CCCN2C(=O)[C@H](CCOC)NC(=O)[C@H](CCCCN)NC(=O)[C@H](CCC(N)=O)NC(=O)[C@@H]2CCCN2C(=O)[C@@H]2CCCN2C(=O)[C@H]([C@@H](C)CC)NC(=O)[C@H](CO)NC(=O)[C@H](C)NC(=O)[C@H]([C@@H](C)O)NC(=O)[C@H](CCC(=O)O)NC1=O` [Example 1, Cyclo(-OctGly-Glu-Thr-Ala-Ser-Ile-Pro-Pro-Gln-Lys-hSer(Me)-^DPro-Pro-)] (cyclo([Gly(octyl)]ETASIPPQK[hSer](Me)[dP]P)): the IC50 came to 0.0048 µM in assay [1], 0.62 µM in assay [2] and 0.72 µM on human proteinase 3. Also, in assay [2], the hNE/PPE selectivity is recorded as 129. Further, the hNE/hPr3 selectivity at human proteinase 3 is 150.

Turning to `CCCCCCCC[C@@H]1NC(=O)[C@@H]2CCCN2C(=O)[C@H]2CCCN2C(=O)[C@H](CN)NC(=O)[C@H](CCCCN)NC(=O)[C@H](CCC(N)=O)NC(=O)[C@@H]2CCCN2C(=O)[C@@H]2CCCN2C(=O)[C@H]([C@@H](C)CC)NC(=O)[C@H](CO)NC(=O)[C@H](C)NC(=O)[C@H]([C@@H](C)O)NC(=O)[C@H](CCC(=O)O)NC1=O` [Example 2, Cyclo(-OctGly-Glu-Thr-Ala-Ser-Ile-Pro-Pro-Gln-Lys-Dap-^DPro-Pro-)] (cyclo([Gly(octyl)]ETASIPPQK[Dap][dP]P)), the IC50 in assay [1] was 0.0055 µM. Further, in assay [2], the hNE/PPE selectivity stood at 218 and the IC50 worked out at 1.2 µM. Also, at human proteinase 3, the hNE/hPr3 selectivity is listed as 644 and the IC50 was 3.54 µM.

`CCCCCCCC[C@@H]1NC(=O)[C@@H]2CCCN2C(=O)[C@H]2CCCN2C(=O)[C@H]([C@H](C)O)NC(=O)[C@H](CCCCN)NC(=O)[C@H](CCC(N)=O)NC(=O)[C@@H]2CCCN2C(=O)[C@@H]2CCCN2C(=O)[C@H]([C@@H](C)CC)NC(=O)[C@H](CO)NC(=O)[C@H](C)NC(=O)[C@H]([C@@H](C)O)NC(=O)[C@H](CCC(=O)O)NC1=O` [Example 3, Cyclo(-OctGly-Glu-Thr-Ala-Ser-Ile-Pro-Pro-Gln-Lys-alloThr-^DPro-Pro-)] (cyclo([Gly(octyl)]ETASIPPQK[aThr][dP]P)): the IC50 in assay [1] amounted to 0.0068 µM. Besides, in assay [2], the hNE/PPE selectivity came to 209 and the half-maximal inhibitory concentration (IC50) worked out at 1.42 µM. In addition, on human proteinase 3, the hNE/hPr3 selectivity stood at 149 and the IC50 is 1.01 µM.

With `CCCCCCCC[C@@H]1NC(=O)[C@@H]2CCCN2C(=O)[C@H]2CCCN2C(=O)[C@H](CCO)NC(=O)[C@H](CCCCN)NC(=O)[C@H](CCC(N)=O)NC(=O)[C@@H]2CCCN2C(=O)[C@@H]2CCCN2C(=O)[C@H]([C@@H](C)CC)NC(=O)[C@H](CO)NC(=O)[C@H](C)NC(=O)[C@H]([C@@H](C)O)NC(=O)[C@H](CCC(=O)O)NC1=O` [Example 4, Cyclo(-OctGly-Glu-Thr-Ala-Ser-Ile-Pro-Pro-Gln-Lys-hSer-^DPro-Pro-)] (cyclo([Gly(octyl)]ETASIPPQK[hSer][dP]P)), the IC50 in assay [1] amounted to 0.0086 µM. Moreover, in assay [2], the hNE/PPE selectivity came out at 157 and the IC50 came out at 1.35 µM. Moreover, on human proteinase 3, the hNE/hPr3 selectivity is listed as 119 and the IC50 is 1.02 µM.

Take `CCCCCCCC[C@@H]1NC(=O)[C@@H]2CCCN2C(=O)[C@H]2CCCN2C(=O)[C@H](CCCC(N)=O)NC(=O)[C@H](CCCCN)NC(=O)[C@H](CCC(N)=O)NC(=O)[C@@H]2CCCN2C(=O)[C@@H]2CCCN2C(=O)[C@H]([C@@H](C)CC)NC(=O)[C@H](CO)NC(=O)[C@H](C)NC(=O)[C@H]([C@@H](C)O)NC(=O)[C@H](CCC(=O)O)NC1=O` [Example 5, Cyclo(-OctGly-Glu-Thr-Ala-Ser-Ile-Pro-Pro-Gln-Lys-hGln-^DPro-Pro-)] (cyclo([Gly(octyl)]ETASIPPQK[Aad](NH2)[dP]P)): the IC50 was determined as 0.0099 µM in assay [1], 1.59 µM in assay [2] and 2.35 µM at human proteinase 3. For the same molecule, in assay [2], the hNE/PPE selectivity turned out to be 161. Besides, the hNE/hPr3 selectivity on human proteinase 3 was found to be 237.
